Consider 22 compounds from ChEMBL document CHEMBL4831512 (J Med Chem, 2021).

Molecules are shown by their SMILES. ≈ marks a conversion by molar mass, not a printed value. Calls of active or inactive are those of the source. The rule behind the calls is not given here. A value given as a limit tells only on which side of the number the result lay.

A short description of one series: in vitro. To be noted: PAMPA. On the technique in general: PAMPA measures passive passage across an artificial lipid membrane.
The subject of another series is Blood. In words: tissue or blood. To be noted: Homo sapiens. It counts as functional, tissue-based.
Series [1] in a line: physchem. To be noted: buffer, pH 6.8.
Description: Equilibrium solubility of compound in buffer at pH 6.8 incubated over night under shaking condition by LC-MS/MS analysis
Series [2] in a line: in vivo. The conditions noted are these: Sprague-Dawley, rat, iv, 1 mg/kg.
Series [3] can be described thus: physchem. To be noted: simulated gi fluid, pH 1.
Description: Solubility of compound in stimulated gastric fluid at pH 1 using crystalline form of sample by shake flask method
Series [4] in a line: in vivo. To be noted: Sprague-Dawley, rat, po, 10 mg/kg.
Series [5] can be described thus: physchem. To be noted: simulated gi fluid.
Description: Solubility of compound in fed state simulated intestinal fluid by shake flask method
The nature of series [6]: physchem. The conditions noted are these: buffer, pH 6.8. The source holds these as a separate data set.
Description: Solubility of compound at pH 6.8 by shake flask method
Series [7] can be described thus: in vivo. The conditions noted are these: Sprague-Dawley, rat, po, 10 mg/kg. This is another data set of the same source.
Series [8] is described as follows: in vivo. To be noted: Sprague-Dawley, rat, po, 10 mg/kg. The source holds these as a separate data set.
Series [9] can be described thus: in vivo. To be noted: Sprague-Dawley, rat, iv, 1 mg/kg. This is another data set of the same source.
For series [10], the target named is T1, Phosphatidylinositol 4,5-bisphosphate 3-kinase catalytic subunit beta isoform (Homo sapiens, UniProt P42338). It counts as cell-based, Fibroblast.
T1 sequence (P42338 whole entry, canonical isoform): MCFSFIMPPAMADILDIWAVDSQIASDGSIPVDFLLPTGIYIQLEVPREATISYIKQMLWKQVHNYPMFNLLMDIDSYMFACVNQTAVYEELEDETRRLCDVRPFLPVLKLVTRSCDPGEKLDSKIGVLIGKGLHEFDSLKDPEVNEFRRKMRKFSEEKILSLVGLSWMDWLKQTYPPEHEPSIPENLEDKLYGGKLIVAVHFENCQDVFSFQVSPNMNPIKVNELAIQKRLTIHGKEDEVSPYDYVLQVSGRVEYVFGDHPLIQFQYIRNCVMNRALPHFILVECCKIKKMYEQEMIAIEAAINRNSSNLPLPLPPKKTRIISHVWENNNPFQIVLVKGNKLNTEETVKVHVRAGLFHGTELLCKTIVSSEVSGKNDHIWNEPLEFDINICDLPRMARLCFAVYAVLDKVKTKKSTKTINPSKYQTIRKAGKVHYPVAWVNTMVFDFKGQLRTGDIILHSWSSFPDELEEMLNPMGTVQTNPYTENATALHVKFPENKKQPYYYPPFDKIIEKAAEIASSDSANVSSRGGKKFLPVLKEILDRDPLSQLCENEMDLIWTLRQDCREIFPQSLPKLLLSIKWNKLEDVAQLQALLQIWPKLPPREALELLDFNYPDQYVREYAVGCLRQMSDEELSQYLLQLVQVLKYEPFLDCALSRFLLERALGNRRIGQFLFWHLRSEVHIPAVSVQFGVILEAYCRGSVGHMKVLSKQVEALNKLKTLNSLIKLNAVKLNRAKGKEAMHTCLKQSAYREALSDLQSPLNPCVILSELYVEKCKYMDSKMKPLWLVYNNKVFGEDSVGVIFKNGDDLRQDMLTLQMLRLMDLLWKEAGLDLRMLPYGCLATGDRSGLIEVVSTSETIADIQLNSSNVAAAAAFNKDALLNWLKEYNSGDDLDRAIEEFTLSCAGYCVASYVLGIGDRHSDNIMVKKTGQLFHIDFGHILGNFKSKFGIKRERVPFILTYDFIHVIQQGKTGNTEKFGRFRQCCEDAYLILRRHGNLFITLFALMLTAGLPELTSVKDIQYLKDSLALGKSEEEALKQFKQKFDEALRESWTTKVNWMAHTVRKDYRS
Description: Inhibition of human PI3Kbeta expressed in rat fibroblast cells assessed as reduction in AKT phosphorylation at Ser473 residue incubated for 1 hr by AlphaScreen assay
Series [11] addresses T2, Phosphatidylinositol 4,5-bisphosphate 3-kinase catalytic subunit delta isoform (Homo sapiens, UniProt O00329).
T2 sequence (O00329 whole entry): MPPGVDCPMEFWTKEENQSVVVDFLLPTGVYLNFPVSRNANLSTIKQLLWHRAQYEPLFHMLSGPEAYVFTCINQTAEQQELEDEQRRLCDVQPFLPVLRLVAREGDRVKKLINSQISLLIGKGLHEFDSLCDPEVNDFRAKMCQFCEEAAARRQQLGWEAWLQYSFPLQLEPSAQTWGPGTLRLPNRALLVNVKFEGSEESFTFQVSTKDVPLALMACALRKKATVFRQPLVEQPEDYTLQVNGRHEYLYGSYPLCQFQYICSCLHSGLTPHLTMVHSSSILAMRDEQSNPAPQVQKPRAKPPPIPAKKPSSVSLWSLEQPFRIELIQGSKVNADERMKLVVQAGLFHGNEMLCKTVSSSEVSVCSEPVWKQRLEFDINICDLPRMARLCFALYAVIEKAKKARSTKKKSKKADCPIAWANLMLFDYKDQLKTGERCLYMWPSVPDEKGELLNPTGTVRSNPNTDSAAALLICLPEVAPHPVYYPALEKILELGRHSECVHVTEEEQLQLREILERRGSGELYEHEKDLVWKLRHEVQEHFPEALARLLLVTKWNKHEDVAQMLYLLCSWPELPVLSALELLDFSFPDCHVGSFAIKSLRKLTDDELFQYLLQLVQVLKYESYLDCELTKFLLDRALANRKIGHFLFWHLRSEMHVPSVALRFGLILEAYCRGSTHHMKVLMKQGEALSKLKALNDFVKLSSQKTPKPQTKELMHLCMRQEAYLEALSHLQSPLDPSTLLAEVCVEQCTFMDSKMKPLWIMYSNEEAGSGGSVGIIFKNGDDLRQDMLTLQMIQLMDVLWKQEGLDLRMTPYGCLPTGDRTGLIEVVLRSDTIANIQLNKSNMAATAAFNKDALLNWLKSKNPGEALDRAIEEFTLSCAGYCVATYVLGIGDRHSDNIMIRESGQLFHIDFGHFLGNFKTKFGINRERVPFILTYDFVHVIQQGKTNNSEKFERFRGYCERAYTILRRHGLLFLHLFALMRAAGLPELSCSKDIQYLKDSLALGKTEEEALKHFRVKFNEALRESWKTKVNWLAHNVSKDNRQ
It counts as cell-based, Fibroblast.
Description: Inhibition of human PI3Kdelta expressed in rat fibroblast cells assessed as reduction in AKT phosphorylation at Ser473 residue incubated for 1 hr by AlphaScreen assay

Series [12] has as its target T3, Phosphatidylinositol 4,5-bisphosphate 3-kinase catalytic subunit alpha isoform (Homo sapiens, UniProt P42336). It counts as cell-based, Fibroblast.
Description: Inhibition of human PI3Kalpha expressed in rat fibroblast cells assessed as reduction in AKT phosphorylation at Ser473 residue incubated for 1 hr by AlphaScreen assay
Series [13] deals with T3, Phosphatidylinositol 4,5-bisphosphate 3-kinase catalytic subunit alpha isoform.
Series [14] addresses T1, Phosphatidylinositol 4,5-bisphosphate 3-kinase catalytic subunit beta isoform.
Series [15] addresses T2, Phosphatidylinositol 4,5-bisphosphate 3-kinase catalytic subunit delta isoform.
Series [16] in a line: in vivo. To be noted: Sprague-Dawley, rat, po, 100 mg/kg.
Series [17] deals with 3',5'-cyclic-AMP phosphodiesterase 4D (Homo sapiens, UniProt Q08499).
Sequence of 3',5'-cyclic-AMP phosphodiesterase 4D (Q08499 whole entry): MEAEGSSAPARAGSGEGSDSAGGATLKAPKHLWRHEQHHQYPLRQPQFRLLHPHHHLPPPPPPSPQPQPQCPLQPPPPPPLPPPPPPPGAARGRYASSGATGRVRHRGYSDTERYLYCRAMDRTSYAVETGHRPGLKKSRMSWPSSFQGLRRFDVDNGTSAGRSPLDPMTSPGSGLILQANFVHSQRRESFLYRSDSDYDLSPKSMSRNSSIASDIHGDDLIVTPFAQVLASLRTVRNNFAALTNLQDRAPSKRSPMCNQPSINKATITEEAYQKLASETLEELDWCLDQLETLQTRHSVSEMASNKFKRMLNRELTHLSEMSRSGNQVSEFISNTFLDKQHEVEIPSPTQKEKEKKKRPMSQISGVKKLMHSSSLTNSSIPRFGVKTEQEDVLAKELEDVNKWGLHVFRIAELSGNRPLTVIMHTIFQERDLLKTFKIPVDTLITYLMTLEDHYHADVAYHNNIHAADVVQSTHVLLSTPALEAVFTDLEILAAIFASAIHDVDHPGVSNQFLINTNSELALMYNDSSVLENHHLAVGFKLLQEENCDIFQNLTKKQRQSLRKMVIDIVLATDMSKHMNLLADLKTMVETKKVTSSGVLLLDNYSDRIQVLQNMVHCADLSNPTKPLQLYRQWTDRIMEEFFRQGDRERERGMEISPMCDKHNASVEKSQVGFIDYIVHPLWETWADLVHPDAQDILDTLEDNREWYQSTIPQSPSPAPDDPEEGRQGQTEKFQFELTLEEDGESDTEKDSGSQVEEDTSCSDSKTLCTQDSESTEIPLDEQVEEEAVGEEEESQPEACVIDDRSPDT
Description: Binding affinity to PDE4d (unknown origin)
A short description of series [18]: in vivo. The conditions noted are these: Sprague-Dawley, rat, po, 300 mg/kg.
The species entered for series [19] is Rattus norvegicus. The conditions noted are these: dose 20.0 mg/kg, time 2.0 hrs.
Series [20] is filed under the species Rattus norvegicus. To be noted: dose 10-20 mg/kg, time 2.0 hrs.
Series [21] can be described thus: in vivo. The conditions noted are these: Sprague-Dawley, rat, po, 300 mg/kg. The source holds these as a separate data set.
Series [22] is described as follows: in vivo. The conditions noted are these: Sprague-Dawley, rat, po, 100 mg/kg. This is another data set of the same source.
Series [23] in a line: in vivo. To be noted: Sprague-Dawley, rat, po, 100 mg/kg. The source holds these as a separate data set.
The nature of series [24]: in vivo. The conditions noted are these: Sprague-Dawley, rat, po, 300 mg/kg. The source holds these as a separate data set.

T3 sequence (P42336 whole entry, canonical isoform): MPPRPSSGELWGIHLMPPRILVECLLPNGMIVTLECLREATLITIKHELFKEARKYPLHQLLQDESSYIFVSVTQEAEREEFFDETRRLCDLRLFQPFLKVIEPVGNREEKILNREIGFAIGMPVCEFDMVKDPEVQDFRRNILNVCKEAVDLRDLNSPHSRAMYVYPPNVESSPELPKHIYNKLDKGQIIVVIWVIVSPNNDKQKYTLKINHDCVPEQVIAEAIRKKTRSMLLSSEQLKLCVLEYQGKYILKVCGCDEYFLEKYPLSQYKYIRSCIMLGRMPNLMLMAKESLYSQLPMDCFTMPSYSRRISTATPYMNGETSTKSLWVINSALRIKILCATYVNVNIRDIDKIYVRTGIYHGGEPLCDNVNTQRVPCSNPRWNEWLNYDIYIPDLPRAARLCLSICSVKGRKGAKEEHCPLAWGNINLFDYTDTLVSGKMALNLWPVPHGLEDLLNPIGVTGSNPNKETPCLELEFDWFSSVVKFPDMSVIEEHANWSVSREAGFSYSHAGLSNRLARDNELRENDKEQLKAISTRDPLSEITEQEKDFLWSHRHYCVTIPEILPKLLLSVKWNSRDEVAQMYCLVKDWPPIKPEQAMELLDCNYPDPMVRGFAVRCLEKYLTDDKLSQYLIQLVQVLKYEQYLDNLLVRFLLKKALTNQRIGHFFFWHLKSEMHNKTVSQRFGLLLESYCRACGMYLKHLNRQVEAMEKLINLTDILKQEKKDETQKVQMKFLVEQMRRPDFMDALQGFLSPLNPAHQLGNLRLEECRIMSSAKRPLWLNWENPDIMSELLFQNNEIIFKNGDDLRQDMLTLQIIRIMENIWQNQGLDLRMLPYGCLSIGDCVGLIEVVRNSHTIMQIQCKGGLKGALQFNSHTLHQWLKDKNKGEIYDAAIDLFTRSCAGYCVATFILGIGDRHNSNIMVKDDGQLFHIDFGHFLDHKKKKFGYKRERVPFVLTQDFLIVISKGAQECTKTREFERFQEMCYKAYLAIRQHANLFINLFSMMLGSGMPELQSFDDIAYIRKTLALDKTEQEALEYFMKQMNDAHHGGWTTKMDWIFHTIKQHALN
Description for in vitro: Permeability of the compound at 500 uM incubated for 16 hrs by PAMPA

In “in vitro”, `Cc1ncc(-c2nc(-c3cc(S(=O)(=O)NCCO)ccc3C)cnc2N)s1` gave a Fa at 16 h, 500 µM of 35%.

`Cc1ncc(-c2nc(-c3cc(S(=O)(=O)NC4CCC(F)(F)CC4)ccc3C)cnc2N)s1`: the Fa at 16 h, 500 µM in the series “in vitro” is 96%.

Turning to `Cc1cc(-c2nc(-c3cc(S(=O)(=O)NCC(C)(C)O)ccc3C)cnc2N)on1`, the Fa at 16 h, 500 µM in the series “in vitro” was 43%.

In the series on Blood, `Cc1ncc(-c2cc(-c3cc(S(=O)(=O)NCC(C)(C)O)ccc3C)cnc2N)s1` came in with an IC50 of 1810 nM. The compound also came in with a solubility (thermodynamic) in “physchem [1]” of 52 µg/mL (≈ 120 µM). Further, the Fa at 16 h, 500 µM in the series “in vitro” was 43%.

In “in vitro”, `Cc1ncc(-c2nc(-c3cc(S(=O)(=O)NCCC(C)(C)O)ccc3C)cnc2N)s1` came in with a Fa at 16 h, 500 µM of 35%.

`Cc1nnc(-c2cc(-c3cc(S(=O)(=O)NCC(C)(C)O)ccc3C)cnc2N)o1`: the Fa at 16 h, 500 µM in the series “in vitro” was 27%.

Take `Cc1ccc(S(=O)(=O)NCC(C)(C)O)cc1-c1cnc(N)c(-c2nn(C)nc2C)n1`: the Fa at 16 h, 500 µM in the series “in vitro” was found to be 81%.

With `Cc1ccc(S(=O)(=O)NCC(C)(C)O)cc1-c1cnc(N)c(-c2cnn(C)n2)c1`, in the series on Blood, the IC50 stood at 931 nM. This compound also gave a thermodynamic solubility in the series “physchem [1]” of 290 µg/mL (≈ 696 µM). The compound further gave a Fa at 16 h, 500 µM in the series “in vitro” of 52%.

`Cc1ccc(S(=O)(=O)NCC(C)(C)O)cc1-c1cnc(N)c(-n2cncn2)n1` returned a Fa at 16 h, 500 µM in “in vitro” of 27%.

Regarding `Cc1noc(-c2cc(-c3cc(S(=O)(=O)NCC(C)(C)O)ccc3C)cnc2N)n1`, the solubility (thermodynamic) is 160 µg/mL (≈ 383 µM) in the series “physchem [1]”, 1020 µg/mL (≈ 2460 µM) in “physchem [3]”, 92 µg/mL (≈ 220 µM) in “physchem [5]” and 16 µg/mL (≈ 38.3 µM) in “physchem [6]”. This compound returned a clearance in “in vivo [2]” of 15 mL/min/kg. This compound also showed a Cmax in the series “in vivo [4]” of 3.29 µM. In the series “in vitro”, this compound registered a Fa at 16 h, 500 µM of 81%. The bioavailability in the series “in vivo [7]” was determined as 66%. The AUC(0-t) at 24 h in “in vivo [8]” amounted to 17.1 µM·h.

In “in vitro”, `Cc1ccc(S(=O)(=O)NCC(C)(C)O)cc1-c1cnc(N)c(-c2cnn(C)n2)n1` showed a Fa at 16 h, 500 µM of 60%.

In “in vivo [9]”, `Cc1ccc(S(=O)(=O)N[C@H]2CC[C@H](O)CC2)cc1-c1cnc(N)c(C(=O)C2CC2)n1` had a half-life of 4.6 h.

`Cc1ncc(-c2nc(-c3cc(S(=O)(=O)NCCCO)ccc3C)cnc2N)s1` gave a Fa at 16 h, 500 µM in the series “in vitro” of 27%.

Turning to `Cc1ccc(S(=O)(=O)NCC(C)(C)O)cc1-c1cnc(N)c(-c2cnn(C)c2C)c1`, the Fa at 16 h, 500 µM in the series “in vitro” was below 35%.

`CCn1nnc(CCNC(=O)Nc2nc(C)c(-c3ccc(S(C)(=O)=O)c(F)c3)s2)n1`: the IC50 in series [10] was 2360 nM; with Blood, 7050 nM; in [11] it was 4030 nM; in [12] it was above 10000 nM; in series [13], 3030 nM; in [14], 360 nM. The compound further returned an IC50 in series [15] of 960 nM.

Turning to `Cc1ccc(S(=O)(=O)NCC(C)(C)O)cc1-c1cnc(N)c(-c2cn(C)nc2C)n1`, in “in vitro”, the Fa at 16 h, 500 µM came to 24%.

In the series “physchem [1]”, `Cc1cnn(-c2cc(-c3cc(S(=O)(=O)NCC(C)(C)O)ccc3C)cnc2N)c1` gave a thermodynamic solubility of 30 µg/mL (≈ 72.2 µM). The compound further gave a Fa at 16 h, 500 µM in “in vitro” of 68%.

In the case of `Cc1ccc(S(=O)(=O)NCC(C)(C)O)cc1-c1cnc(N)c(-n2cncn2)c1`, the Fa at 16 h, 500 µM in “in vitro” was below 27%.

In the case of `Cc1ncc(-c2cc(-c3cc(S(=O)(=O)NCC(C)(C)O)ccc3C)cnc2N)o1`, the 50% inhibitory concentration (IC50) with Blood came out at 856 nM; in series [17] it was 1100 nM. In addition, the thermodynamic solubility is 270 µg/mL (≈ 648 µM) in “physchem [1]”, 532 µg/mL (≈ 1280 µM) in the series “physchem [3]”, 200 µg/mL (≈ 480 µM) in the series “physchem [5]” and 4 µg/mL (≈ 9.6 µM) in the series “physchem [6]”. The compound also came in with a clearance in the series “in vivo [2]” of 30 mL/min/kg. The AUC(0-t) at 24 h in the series “in vivo [16]” turned out to be 128 µM·h; in the series “in vivo [18]” it was 397 µM·h; in the series “in vivo [8]”, 9.75 µM·h. For the same compound, the Cmax in the series “in vivo [4]” came to 1.53 µM; in the series “in vivo [21]”, 25.2 µM; in the series “in vivo [23]”, 12.2 µM. Moreover, in the series listed under Rattus norvegicus [19], the inhibition result is “Active”. The Fa at 16 h, 500 µM in “in vitro” is below 27%. The inhibition entry in the series listed under Rattus norvegicus [20] was “Dose-Dependent Effect”. The bioavailability in “in vivo [22]” came out at 94%; in “in vivo [7]”, 72%; in “in vivo [24]”, 122%.

The compound `Cc1ncc(-c2nc(-c3cc(S(=O)(=O)NCC(C)(C)O)ccc3C)cnc2N)s1` came in with a Fa at 16 h, 500 µM in the series “in vitro” of 43%.

In turn, `Cc1ccn(-c2nc(-c3cc(S(=O)(=O)NCC(C)(C)O)ccc3C)cnc2N)n1` came in with a Fa at 16 h, 500 µM in “in vitro” of 96%.

Compound `Cc1ncc(-c2nc(-c3cc(S(=O)(=O)N[C@H]4CC[C@H](O)CC4)ccc3C)cnc2N)s1` came in with a Fa at 16 h, 500 µM in “in vitro” below 21%.

In general, IC50 refers to the concentration that gives 50% inhibition. A high value points to weaker potency. In general, thermodynamic solubility refers to solubility found after equilibrating the solid with the medium. Broadly, the clearance is a measure of how efficiently the substance is removed, as volume per time. Usually Cmax stands for the highest concentration seen after dosing. In general, AUC(0-t) refers to the area under the concentration-time curve up to a stated or last time point. Higher therefore signals high exposure. For orientation: half-life means how long it takes for the measured level to halve. The low end stands for rapid decline, the high end for slow decline.
